The text below walks through data of ChEMBL document CHEMBL1150549, “Synthesis and antifungal activity of new azole derivatives containing an oxathiane ring” (1996).

Converted amounts (≈) assume the structure as drawn. Some results are limits rather than exact numbers.

What all share (format): functional
Assay [1] has as its system Aspergillus fumigatus. As to the kind of experiment: In vitro antifungal activity against Aspergillus fumigatus MTU6001.
The subject of assay [2] is Mus musculus. As to the kind of experiment: In vivo antifungal activity against Aspergillus fumigatus in mice at a dose of 50 mg/kg upon oral administration.
Assay [3] relates to Candida albicans. As to the kind of experiment: In vitro antifungal activity against Candida albicans KB-8.
The subject of assay [4] is Mus musculus. Put plainly: In vivo antifungal activity against Candida albicans in mice at a dose of 10 mg/kg upon oral administration.
Assay [5] deals with Mus musculus. Put plainly: In vivo antifungal activity against Aspergillus fumigatus in mice at a dose of 100 mg/kg upon oral administration.

Turning to `C[C@H]1SCCOC1(Cn1cncn1)c1ccc(F)cc1F` (single isomer, unassigned), the minimum inhibitory concentration (MIC) in assay [1] amounted to 50 µg/mL (≈ 161 µM); in assay [3], 0.2 µg/mL (≈ 0.642 µM). For the same compound, the values for the Mean survival days in assay [2] and in assay [4] were 1.5 days and 4.9 days, respectively.
For `OC(Cn1cncn1)(Cn1cncn1)c1ccc(F)cc1F` [FLUCONAZOLE], the MIC in assay [1] turned out to be 400 µg/mL (≈ 1310 µM); in assay [3], 0.78 µg/mL (≈ 2.55 µM). The Mean survival days came out at 10 days in assay [4] and 2.8 days in assay [5].
Turning to `CC1(C)SCCOC1(Cn1cncn1)c1ccc(F)cc1F` (single isomer, unassigned), the MIC in assay [1] was found to be 3.13 µg/mL (≈ 9.62 µM); in assay [3], 0.1 µg/mL (≈ 0.307 µM). Moreover, the figures for the Mean survival days in assay [2] and in assay [4] were 9.8 days and 8.6 days, respectively.
`C[C@H]([C@](O)(Cn1cncn1)c1ccc(F)cc1F)S(C)(=O)=O` [GENACONAZOLE]: the MIC is 25 µg/mL (≈ 75.5 µM) in assay [1] and 0.39 µg/mL (≈ 1.18 µM) in assay [3]. Also, the Mean survival days in assay [2] and in assay [4] was 10 days each time.
Take `C[C@@H]1SCCOC1(Cn1cncn1)c1ccc(F)cc1F` (single isomer, unassigned): the MIC in assay [1] was found to be 25 µg/mL (≈ 80.3 µM); in assay [3], 0.1 µg/mL (≈ 0.321 µM). Further, the Mean survival days in assay [2] came out at 1.9 days; in assay [4], 2 days.
Turning to `CC1COC(Cn2cncn2)(c2ccc(F)cc2F)C(C)(C)S1(=O)=O` (single isomer, unassigned), the MIC in assay [1] was found to be 12.5 µg/mL (≈ 33.7 µM); in assay [3], 0.39 µg/mL (≈ 1.05 µM). In addition, the Mean survival days in assay [2] was determined as 9.4 days; in assay [4], 10 days.
The matching figures for `CC1(C)C(Cn2cncn2)(c2ccc(F)cc2F)OCCS1(=O)=O` (single isomer, unassigned): 100 µg/mL (≈ 280 µM), 3.13 µg/mL (≈ 8.76 µM), 10 days and 9.4 days.
As for `C[C@H]1C(Cn2cncn2)(c2ccc(F)cc2F)OCCS1(=O)=O` (single isomer, unassigned), the MIC is more than 100 µg/mL in assay [1] and 3.13 µg/mL (≈ 9.12 µM) in assay [3]. Moreover, the Mean survival days in assay [2] was 1.8 days; in assay [4], 1.2 days.
On to `C[C@@H]1C(Cn2cncn2)(c2ccc(F)cc2F)OCCS1(=O)=O` (single isomer, unassigned), for which the MIC in assay [1] is more than 100 µg/mL; in assay [3], 6.25 µg/mL (≈ 18.2 µM). Moreover, the Mean survival days in assay [2] is 1.1 days; in assay [4], 6.9 days.

The MIC is the lowest concentration found to suppress growth. Low values mean greater potency, high ones weaker potency.
